Laboratory results from patent US6001353A, “20α-alpha-hydroxy steroid dehydrogenase related material and methods” (priority 1997, dated 1999).

Experiments:
recombinant 20α-HSD [1] = target: T1, recombinant 20α-HSD (Rattus norvegicus, UniProt P51652); assay: Steady state kinetic constants (Lineweaver-Burk); format: biochemical; set-up: a DNA fragment of 1.2 Kb containing the entire coding region of 20α-HSD; GST (E. coli preparation only; removed with thrombin) (N, cleaved yes); made in house; host or cells: E. coli DH5α (pGEX-4T-2) and Sf-9 insect cells (baculovirus, pBlueBacIII); conditions: for concentration at which enzyme activity reached saturation / maximal activity: bacterially expressed enzyme, other reactant fixed (NADP 1 mM or 20α-hydroxyprogesterone 100 μM)
T1 sequence (P51652 1-323): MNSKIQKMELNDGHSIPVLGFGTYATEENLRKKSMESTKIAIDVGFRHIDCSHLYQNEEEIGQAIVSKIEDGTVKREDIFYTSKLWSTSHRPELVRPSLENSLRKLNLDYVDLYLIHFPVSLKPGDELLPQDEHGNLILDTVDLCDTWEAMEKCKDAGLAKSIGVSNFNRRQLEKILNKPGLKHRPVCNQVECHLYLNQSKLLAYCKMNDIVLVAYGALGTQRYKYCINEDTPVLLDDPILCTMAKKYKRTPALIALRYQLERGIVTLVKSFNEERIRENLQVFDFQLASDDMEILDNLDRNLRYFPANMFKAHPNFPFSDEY
Description: The data were transformed into a reciprocal Lineweaver-Burk plot to calculate the Km and maximum velocity (Vmax) values.

recombinant 20α-HSD [2] = target: T1, recombinant 20α-HSD; assay: Substrate specificity, oxidation/reduction of steroid substrates, spectrophotometric; format: biochemical; set-up: a DNA fragment of 1.2 Kb containing the entire coding region of 20α-HSD; GST (E. coli preparation only; removed with thrombin) (N, cleaved yes); made in house; host or cells: E. coli DH5α (pGEX-4T-2) and Sf-9 insect cells (baculovirus, pBlueBacIII); conditions: for Recombinant 20α HSD activity, expressed in E. coli: enzyme expressed in E. coli; for Recombinant 20α HSD activity, expressed in E. coli / Recombinant 20α HSD activity, expressed in Sf-9 cells: spectrophotometric; for Recombinant 20α HSD activity, expressed in Sf-9 cells: enzyme expressed in Sf-9 cells
Procedure: (§1) Enzyme activity of the recombinant 20α-HSD was determined by the rate of conversion of [1-2^3 H]-20α-hydroxy-pregn-4-ene-3-one (20α-hydroxprogesterone) to [1,2^3 H]progesterone in the presence of NADPH as described by Jones & Hsueh [J. Biol. Chem. 256:1248-1254 (1981)]. Enzyme activity was measured in this manner due to the fact that in an in vitro setting the reaction may be reversed, i.e. conversion of 20α-hydroxyprogesterone to progesterone. The assay mixtures (0.05 ml) contained 100 μM [1,2^3 H]hydroxyprogesterone [Dupont-New England Nuclear Research Products, Boston Mass.] […] Following incubation at 37° C. for 30 minutes, the [^3 H]progesterone content of each sample was determined after isolation by thin layer chromatography isolation. One unit of enzyme activity is defined as that amount of enzyme catalyzing the formation of 1 nmol of [^3 H]progesterone/minute from [1,2^3 H]hydroxyprogesterone. Specific activity is expressed as units/min/mg protein. The protein concentration was determined by the Bradford method using bovine serum albumin [Sigma Chemical Co, St. Louis, Mo.] as the standard [Bradford, Anal. Biochem. 72:248-254 (1976)]. […] Acta. 799:51-58 (1984); Noda et al., Biochim Biophys. Acta. 1079:112-118 (1991)].
To determine substrate specificity of recombinant 20α-HSD, the oxidation/reduction of several steroid substrates was also studied. […] Acta. 799:51-58 (1984); Noda et al., Biochim Biophys. Acta. 1079:112-118 (1991)]. […] However, compared to 20α-hydroxyprogesterone, 20α-HSD activity toward 17α-hydroxyprogesterone was lower, and its activity with progesterone was relatively higher.
The enzyme activity was measured spectrophotometrically. The data are expressed as the mean of duplicate determinations from three separate experiments. ND, not detected.

recombinant 20α-HSD [3] = target: T1, recombinant 20α-HSD; assay: Aldo-keto (aldose/aldehyde) reductase activity, spectrophotometric NADPH oxidation at 340 nm; format: biochemical; set-up: a DNA fragment of 1.2 Kb containing the entire coding region of 20α-HSD; GST (E. coli preparation only; removed with thrombin) (N, cleaved yes); made in house; host or cells: E. coli DH5α (pGEX-4T-2) and Sf-9 insect cells (baculovirus, pBlueBacIII); conditions: for activity relative to that observed with 20α-hydroxyprogesterone: maximal activity among aldose/aldehyde reductase substrates; for reduction of substrate by 20α-HSD (in words): purified recombinant 20α-HSD proteins
Procedure: Aldo-keto reductase activity of the recombinant 20α-HSD was assayed spectrophotometrically by measuring the rate of oxidation of NADPH at 340 nm at 37° C. using a saturating concentration of benzaldehyde, 2-nitrobenzaldehyde, D,L -glyceraldehyde methylgloxal, 9,10-phenanthrequinone or ^D -galactose [Azhar et al., Biochemistry 26:7047-7057 (1987)].

[4] = substrate: NC(=O)c1ccc[n+]([C@@H]2O[C@H](COP(=O)([O-])OP(=O)(O)OC[C@H]3O[C@@H](n4cnc5c(N)ncnc54)[C@H](OP(=O)(O)O)[C@@H]3O)[C@@H](O)[C@H]2O)c1; assay: purified protein, by the assay type
[5] = substrate: C[C@H](O)[C@H]1CC[C@H]2[C@@H]3CCC4=CC(=O)CC[C@]4(C)[C@H]3CC[C@]12C; assay: Steady state kinetic constants (Lineweaver-Burk); format: biochemical, rat
recombinant 20α-HSD [6] = target: T1, recombinant 20α-HSD; assay: 20α-HSD enzyme activity: conversion of [3H]20α-hydroxyprogesterone to [3H]progesterone; format: biochemical; set-up: a DNA fragment of 1.2 Kb containing the entire coding region of 20α-HSD; GST (E. coli preparation only; removed with thrombin) (N, cleaved yes); made in house; host or cells: E. coli DH5α (pGEX-4T-2) and Sf-9 insect cells (baculovirus, pBlueBacIII); conditions: for Mean Specific Activity ± SE: purified recombinant enzyme, Table 3
Procedure: as §1

20α-HSD mRNA = assay: Northern blot of corpus luteum 20α-HSD mRNA in hypophysectomized pregnant rats; format: in vivo, rat; conditions: rats hypophysectomized day 3, 125 μg twice daily, tissue on day 7
Procedure: For these studies, Holtzman pregnant rats were hypophysectomized on day 3 and treated with either prolactin (NIADDK oPRL-18, 125 μg, twice daily) or with vehicle (control). On day 7, corpus luteum and various other tissues (brain, decidua, ovary, and uterus) were obtained for analysis.
Total RNA from the harvested tissues was isolated by the method of Chomzynski and Sacchi [Anal. Biochem. 162:156-159 (1984)] and equal aliquots (20 μg) were electrophoresized and transferred to nylon membranes, or slot blotted onto Genescreen (DuPont, Wilmington, Del.) membrane. RNA was prehybridized for 16 hours at 42° C. in 40% formamide, 6×SSC, 5×Denhardt's, 20 mM NaH2 PO4, 0.2% SDS and 100 μg/ml salmon sperm DNA. Hybridization was completed in the same solution with the addition of ^32 P-labeled rat 20α-HSD cDNA (10^6 cpm/ml) at 42° C. for 12-16 hours. Blots were washed twice in 05.×SSC and 0.1% SDS (15 minutes, room temperature), twice in 0.2×SSC and 0.1% SDS (15 minutes, 42° C.), twice in 0.2×SSC and 0.1% SDS (15 minutes, 56° C.) and twice in 01.×SSC and 0.1% SDS (15 minutes, 56° C.).

[7] = other: enzyme expressed in E. coli, other reactant fixed (NADP 1 mM or 20α-hydroxyprogesterone 100 μM)
[8] = other: enzyme expressed in Sf-9 cells (baculovirus)

Molecule: NC(=O)c1ccc[n+]([C@@H]2O[C@H](COP(=O)([O-])OP(=O)(O)OC[C@H]3O[C@@H](n4cnc5c(N)ncnc54)[C@H](OP(=O)(O)O)[C@@H]3O)[C@@H](O)[C@H]2O)c1 [NADP]
- concentration at which enzyme activity reached saturation / maximal activity (recombinant 20α-HSD [1]): about 100 μM

Molecule: CC(=O)[C@H]1CC[C@H]2[C@@H]3CCC4=CC(=O)CC[C@]4(C)[C@H]3CC[C@]12C [Progesterone]
- Recombinant 20α HSD activity, expressed in E. coli (recombinant 20α-HSD [2]): 459 nmol/min/mg protein
- Recombinant 20α HSD activity, expressed in Sf-9 cells (recombinant 20α-HSD [2]): 352 nmol/min/mg protein

Molecule: CC(=O)[C@@]1(O)CC[C@H]2[C@@H]3CCC4=CC(=O)CC[C@]4(C)[C@H]3CC[C@@]21C [17α-Hydroxyprogesterone]
- Recombinant 20α HSD activity, expressed in E. coli (recombinant 20α-HSD [2]): 97 nmol/min/mg protein
- Recombinant 20α HSD activity, expressed in Sf-9 cells (recombinant 20α-HSD [2]): 85 nmol/min/mg protein

Molecule: C[C@H](O)[C@H]1CC[C@H]2[C@@H]3CCC4=CC(=O)CC[C@]4(C)[C@H]3CC[C@]12C [20α-Hydroxyprogesterone, 20α-hydroxy-pregn-4-ene-3-one]
- concentration at which enzyme activity reached saturation / maximal activity (recombinant 20α-HSD [1]): around 10 μM
- Recombinant 20α HSD activity, expressed in E. coli (recombinant 20α-HSD [2]): 321 nmol/min/mg protein
- Recombinant 20α HSD activity, expressed in Sf-9 cells (recombinant 20α-HSD [2]): 250 nmol/min/mg protein

Molecule: O=Cc1ccccc1 [Benzaldehyde]
- activity relative to that observed with 20α-hydroxyprogesterone (recombinant 20α-HSD [3]): approximately a third
- reduction of substrate by 20α-HSD (in words) (recombinant 20α-HSD [3]): very efficiently

Molecule: C[C@]12C[C@H](O)[C@H]3[C@@H](CCC4=CC(=O)CC[C@@]43C)[C@@H]1CC[C@@H]2C(=O)CO [Corticosterone]
- action of recombinant 20α-HSD on substrate (in words) (recombinant 20α-HSD [2]): did not act on

Molecule: O=Cc1ccc([N+](=O)[O-])cc1 [4-Nitrobenzaldehyde]
- reduction of substrate by 20α-HSD (in words) (recombinant 20α-HSD [3]): very efficiently

Molecule: O=CC(O)CO (racemic) [D,L -Glyceraldehyde]
- activity relative to that observed with 20α-hydroxyprogesterone (recombinant 20α-HSD [3]): approximately a third
- reduction of substrate by 20α-HSD (in words) (recombinant 20α-HSD [3]): very efficiently

Molecule: C[C@]12CCC(=O)C[C@@H]1CC[C@@H]1[C@@H]2CC[C@]2(C)[C@@H](O)CC[C@@H]12 [5α-dihydrotestosterone]
- action of recombinant 20α-HSD on substrate (in words) (recombinant 20α-HSD [2]): did not act on

B1: recombinant 20α-HSD (Rattus norvegicus) (protein)
chain: T1 sequence (P51652 1-323)
notes: a DNA fragment of 1.2 Kb containing the entire coding region of 20α-HSD; GST (E. coli preparation only; removed with thrombin) (N, cleaved yes); made in house; host or cells: E. coli DH5α (pGEX-4T-2) and Sf-9 insect cells (baculovirus, pBlueBacIII)
- Km [4, 7]: 9.5 µM
- Km [4, 8]: 9.6 µM
- Km [5, 7]: 5.9 µM
- Km [5, 8]: 5.8 µM

B2: recombinant 20α-HSD expressed in E. coli: rat 20α-HSD expressed as GST fusion in E. coli DH5α, thrombin-cleaved and purified (protein, UniProt P51652 1-323, looked up)
Aldo-keto reductase family 1 …: T1 sequence (P51652 1-323)
modifications: expressed in E. coli; GST tag thrombin-cleaved
notes: rat 20α-HSD expressed as GST fusion in E. coli DH5α, thrombin-cleaved and purified
- average specific activity of the purified preparations (recombinant 20α-HSD [6]; purified enzyme from bacterial expression system): 332 ±47 nmol/min/mg protein
- Mean Specific Activity ± SE (recombinant 20α-HSD [6]): 332 ± 47 nmol/min - mg protein
- Vmax values higher than those of 20α-HSD expressed in insect cells (recombinant 20α-HSD [1]; similar assay conditions): 20-30%

B3: recombinant 20α-HSD expressed in Sf-9 cells: rat 20α-HSD expressed in baculovirus-infected Sf-9 insect cells and purified (protein, UniProt P51652 1-323, looked up)
Aldo-keto reductase family 1 …: T1 sequence (P51652 1-323)
modifications: expressed in baculovirus Sf-9 cells
notes: rat 20α-HSD expressed in baculovirus-infected Sf-9 insect cells and purified
- Mean Specific Activity ± SE (recombinant 20α-HSD [6]): 259 ± 36 nmol/min - mg protein

B4: prolactin (protein, UniProt P01240 31-229, looked up)
Prolactin: TPVCPNGPGNCQVSLRDLFDRAVMVSHYIHNLSSEMFNEFDKRYAQGKGFITMALNSCHTSSLPTPEDKEQAQQTHHEVLMSLILGLLRSWNDPLYHLVTEVRGMKGVPDAILSRAIEIEEENKRLLEGMEMIFGQVIPGAKETEPYPVWSGLPSLQTKDEDARHSAFYNLLHCLRRDSSKIDTYLKLLNCRIIYNNNC
notes: prolactin (NIADDK oPRL-18)
- expression of 20α-HSD mRNA in corpora lutea (20α-HSD mRNA): markedly reduced
